The text below walks through data of patent EP0151577B1 (priority 1983, dated 1984).

For one assay, the system named is Tension sanguine. The experiment in a line: Cardiovascular activity: blood pressure. In kind it is in vivo. From the text:
Le protocole experimental était celui décrit dans "Sugar Derivatives of Indolamines. part V: Cardiovascular Effects and "Anti-stress" Activity of Desoxyfructose Derivative of Serotonin and 5-Metho-xy- tryptamin", L. Mester, M. Mester, K.P. Bhargava, C. Labrid, G. Dureng and M. Cheucle, THROMBOSIS […], 15,245,1979.

A further assay concerns DOPA-oxydase. Nature of the assay: Inhibition in the DOPA-oxydase + DOPA system. In kind it is biochemical, champignons. The following applies: concentrations inférieures a 10-^4M; figure 1. From the text: D'autres essais ont été entrepris pour mesurer l'inhibition exercée par la DF-5HTP dans le système DOPA-oxydase + DOPA, par comparaison avec la désoxyfructosérotonine (DFS). Pour ce qui concerne l'inhibition de la DOPA-oxydase, on pourra se reporter a la methode de N.H. Horowitz, M. Fling et et C. Horn "Tyrosinase", dans Methods in Enzymology Vol. XVII- A, p. 615, Editors: Tabor and Tabor, Ac. Press, 1970.
L'effet de la désoxyfructo-sérotonine (DFS) sur les Mycobacteries de la lèpre est attribue a son effet inhibiteur sur la DOPA-oxydase de M. leprae. Une DOPA-oxydase semblable, isolée de champignons, est commercialisée (SIGMA) et a servi comme modèle afin de comparer l'effet inhibiteur de la DFS et du désoxyfructo-5-hydroxytryptophane sur cette DOPA-oxydase.
La figure 1 est un graphique dans lequel on a porté en abscisses la concentration de I'agent de traitement utilise et en ordonnées les valeurs de la coloration du milieu mesurée a 540 mµ, celles-ci étant en effet representatives de la concentration en substance capable de colorer le milieu. En presence d'un inhibiteur, la formation de la coloration est empêchée. Ainsi, plus les valeurs portées en ordonnées sont faibles, meilleure est I'inhibition procurée par le compose essayé.

The mark [1] stands for this setting: 10 mg par voie cérébroventriculaire.

As for `O=C(O)C(Cc1c[nH]c2ccc(O)cc12)NCC1(O)OCC(O)C(O)C1O` (stereo not shown) [DF-5HTP, N-1-desoxyfructo-5-hydroxytryptophane], in the assay on Tension sanguine (setting [1]), the “Tension sanguine Durée” value is 50 min, the “Tension sanguine Mesure à” value came out at 1 min and the “Tension sanguine Pic” value amounted to 5 min. In the assay with Tension sanguine (100 mg par voie intraveineuse), the “Tension sanguine Durée” value is on record as 30 min, the “Tension sanguine Mesure à (min)” value is reported as “immé-diat” and the “Tension sanguine Pic” value stood at 1 min. Further, in the assay with DOPA-oxydase, the “activité inhibitrice sur la DOPA-oxydase (coloration du milieu mesurée a 540 mµ)” value was “comparable a celle de la DFS”.
